The values that follow come from ChEMBL document CHEMBL1151801, “Synthesis of new indeno[1,2-e]pyrimido[4,5-b][1,4]diazepine-5,11-diones as potential antitumor agents” (2008).

Active and inactive are the calls of the source. No cut-off for these calls is given here.

This test relates to NCI60. Put plainly: Antitumor activity against human NCI60 cells at 1 uM. The format is functional, cell-based.
In the case of `COc1ccc(C2Nc3nc(SC)[nH]c(=O)c3NC3=C2C(=O)c2ccccc23)cc1` (stereo not given), the result was inactive.
Take `COc1ccc(C2Nc3nc(SC)n(C)c(=O)c3NC3=C2C(=O)c2ccccc23)cc1` (stereo not given): the result was inactive.
For the compound `CSc1nc2c(c(=O)n1C)NC1=C(C(=O)c3ccccc31)C(c1ccccc1)N2` (stereo not given), the outcome was inactive.
Turning to `COc1nc2c(c(=O)n1C)NC1=C(C(=O)c3ccccc31)C(c1ccccc1)N2` (stereo not given), the result was inactive.
In the case of `COc1ccc(C2Nc3nc(OC)n(C)c(=O)c3NC3=C2C(=O)c2ccccc23)cc1` (stereo not given), the outcome was inactive.
